{"source": "patent US4171299A", "about": "“Polypeptide agents for blocking the human allergic response” (The Regents of the University of California, priority 1976, dated 1979)", "format_in_all_cases": "in vivo", "key": {"[1]": {"target": "T1, binding sites on mast cells (Homo sapiens, UniProt P12319)", "T1 construct": "endogenous in cells; host or cells: skin mast cells of living human volunteers (intradermal injection sites on back or forearm)", "T1 sequence (P12319 26-257)": "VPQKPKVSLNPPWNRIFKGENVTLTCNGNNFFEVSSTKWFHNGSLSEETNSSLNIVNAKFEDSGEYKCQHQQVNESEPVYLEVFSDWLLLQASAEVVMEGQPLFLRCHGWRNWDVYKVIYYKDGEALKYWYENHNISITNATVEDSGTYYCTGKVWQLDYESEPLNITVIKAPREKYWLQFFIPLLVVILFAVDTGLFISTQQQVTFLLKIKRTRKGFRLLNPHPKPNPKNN", "T1 sequence (Q01362 1-244 partner)": "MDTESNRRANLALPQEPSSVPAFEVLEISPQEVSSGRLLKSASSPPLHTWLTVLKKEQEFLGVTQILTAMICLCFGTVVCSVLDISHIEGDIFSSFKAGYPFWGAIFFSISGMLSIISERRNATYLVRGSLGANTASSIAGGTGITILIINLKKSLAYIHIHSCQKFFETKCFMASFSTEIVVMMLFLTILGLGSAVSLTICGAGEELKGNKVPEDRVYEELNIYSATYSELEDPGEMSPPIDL", "T1 sequence (P30273 19-86 partner)": "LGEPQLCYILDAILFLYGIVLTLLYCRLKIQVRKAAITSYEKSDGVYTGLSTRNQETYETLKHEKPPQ", "experiment": "Prausnitz-Kustner (P-K) reaction blocking activity assay in human volunteers", "settings": "for inhibition, individual high: highest individual of six; for inhibition, individual high / inhibition, individual low: same conditions as the average; for inhibition, individual low: lowest individual of six; for average % inhibition (P-K wheal): six individuals, peptide approx. 6 μg/ml, 0.1 ml intradermally per site, 0.05 ml diluted P-K serum containing 0.2 ng IgE, guinea pig antigen prick-puncture, versus control wheal", "description": "The \"blocking\" activity of the polypeptides of the invention can be assayed by utilization of the classic Prausnitz-Kustner (P-K) reaction. In this classic method, a known allergic serum i.e., one that contains IgE specific for a known antigen or allergen is injected intradermally into a human volunteer. After waiting a period of time, e.g. 20 or more hours, the injected sites are then challenged with a prick or injection of a solution of an antigen that is specific for the IgE in the injected serum. Within the next 10 to 30 minutes a positive reaction is evidenced by the development of a wheal (and flare) at the injected site. The more extensive the diameter of the wheal the more intensive is the allergic reaction. That is, a more extensive wheal indicates a greater release of histamine into the tissues at the injected site. Conversely, the development of wheals of lesser diameter or the absence of any wheal at all indicates diminished allergic reaction and/or no allergic reaction at all. The P-K reaction as noted above is a classic test and is universally known and utilized by allergists.\nAs noted above, the classic P-K reaction is utilized to assay the \"blocking\" abilities of the polypeptides utilized in the present invention.\nThe following describes assays of a number of polypeptides useful in the present invention, the synthesis of which was described hereinabove.\nAll of these assays were performed using a single proven safe P-K donor serum that contains IgE specific for guinea pig allergens.\nPeptide solutions were either injected intradermally 1 to 24 hours prior to the P-K serum, or mixed with dilutions of the P-K serum for simultaneous injection. Initial tests were performed using the P-K serum at from 1:4 to 1:200 dilutions. Further studies were run at a fixed P-K dilution of 1:32 while the invention peptide solutions were varied to contain from about 1 mM to […] of the peptide being tested. Injected sites on the volunteers were challenged by prick-puncture of guinea pig BCA 1:40 w/v (purchased from Berkeley Biologicals, Inc.).\nHuman volunteers were chosen who had serum IgE levels below 100 U/ml (242 ng/ml) which levels have been previously shown to assure successful P-K reactivity. […] P-K and skin tests were performed on the back and/or forearm. Multiple test sites of approximately 25 mm diameter were circled with a marking pen and all injections were made within the circled skin areas.\nA typical sequence of events was intradermal injection of 0.1 ml of the peptide solution or control buffered saline diluent solution; followed in 1 to 24 hours by intradermal injection of 0.05 ml. of P-K serum into each of the previously injected sites. After 20 to 24 hours had elapsed, each site was prick-punctured with the antigen solution, blotted dry in 5 minutes and measurements of the wheal and flare in both their narrowest and widest diameter were made three times, usually 15, 20 and 25 minutes after prick-punctures.\nBlocking activity assays were undertaken with the following polypeptides: Asp-Pro-Arg; Ser-Asp-Pro-Arg; Asp-Ser-Asp-Pro-Arg; and Ala-Asp-Ser-Asp-Pro-Arg. For comparison testing, Asp-Thr-Glu-Ala-Arg and tosyl-L-arginine sarcosine methylester (TASME), were also synthesized and tested.\nThe above-noted polypeptides were assayed as noted above on six different individuals. Results were as follows:\nThe results, as noted above, present the average of measurements at three time intervals, in duplicate, for each reaction in each individual, subtracted from the average control wheal measurements, and divided by the average measurement of each individual's control wheal. Control wheals in different individuals varied from 8 to 40 mm^2 with a mean of 17 mm^2. Each peptide was utilized at approximately 6 μg/ml dilution and 0.1 ml. was injected at each site, followed by 0.05 ml. of diluted P-K serum containing 0.2 ng. of IgE. […]"}, "[2]": {"target": "T2, IgE already bound to mast cell sites (Homo sapiens, UniProt P12319)", "T2 construct": "endogenous in cells; host or cells: skin mast cells of one naturally guinea-pig-sensitive person, carrying own IgE", "T2 sequence (P12319 26-257)": "T1 sequence (P12319 26-257)", "T2 sequence (Q01362 1-244 partner)": "T1 sequence (Q01362 1-244 partner)", "T2 sequence (P30273 19-86 partner)": "T1 sequence (P30273 19-86 partner)", "experiment": "Displacement test: direct guinea pig antigen skin challenge in a naturally sensitive individual", "settings": "single sensitive individual; for wheal smaller than at buffered saline diluent site: challenge twenty-four hours after intradermal injection of approx. 2 nM", "description": "It has also been determined that the active polypeptides of the invention appear to have the ability to \"displace\" IgE from mast cell sites as well as to prevent the binding of IgE to these sites. In a single test, an individual known to have extreme sensitivity to guinea pig antigens, that is a person with a high natural concentration of guinea-pig-antigen-sensitive IgE, was injected with polypeptides in accordance with the invention, and […] reaction to guinea pig antigen was noted.\nSpecifically, approximately 2 nM each of Asp-Ser-Asp-Pro-Arg and Ala-Asp-Ser-Asp-Pro-Arg were each intradermally injected into 3 marked sites. For comparison, TASME, as well as a control of the buffer diluent alone, was also each injected into 3 marked sites. At one, five and twenty-four hours subsequent to the polypeptide and control injection, one of each peptide and one diluent site were prick-puncture challenged with guinea pig antigen. […] However, at the twenty-four hour challenge, the wheal at the Asp-Ser-Asp-Pro-Arg site was approximately 45% smaller; while at the Ala-Asp-Ser-Asp-Pro-Arg site, the wheal was approximately 23% smaller."}, "DBA white mice": {"tested_on": "DBA white mice", "experiment": "Acute toxicity in DBA white mice", "settings": "24 to 72 hours post-injection; for post-mortem gross and microscopic examination of tissues and organs: 1.4 ml i.d./s.c./i.v./i.p.", "description": "Acute toxicity was determined as follows:\nDBA white mice (average weight 15 g.) were each injected with 1.4 ml. of a solution of the peptide in phosphate buffered saline, pH 7.4, as follows:\n0.1 ml.×3 --subcutaneously\n0.6 ml.--intraperitoneally\nThe peptides and concentrations used were as follows:\nAla-Asp-Ser-Asp-Pro-Arg (Example 4)--5 μg/ml--(375 mg/kg)--6 mice\nAsp-Ser-Asp-Pro-Arg (Example 3)--10 μg/ml--(1 mg/kg)--8 mice\nAsp-Ser-Asp-Pro-Arg (Example 3)--13 μg/ml--(1.3 mg/kg)--8 mice"}}, "note": "Peptide text beside a SMILES is read from it."}
{"compound": "C[C@H](N)C(=O)N[C@@H](CC(=O)O)C(=O)N[C@@H](CO)C(=O)N[C@@H](CC(=O)O)C(=O)N1CCC[C@H]1C(=O)N[C@@H](CCCNC(=N)N)C(=O)O", "note": "[Ala-Asp-Ser-Asp-Pro-Arg] (H-ADSDPR-OH)", "values": [{"measurement": "inhibition, individual high", "setting": "[1]", "result": 61, "unit": "%"}, {"measurement": "inhibition, individual low", "setting": "[1]", "result": 10, "unit": "%"}, {"measurement": "average % inhibition (P-K wheal)", "setting": "[1]", "result": 46, "unit": "%"}, {"measurement": "wheal smaller than at buffered saline diluent site", "setting": "[2]", "result": "approximately 23%"}, {"measurement": "post-mortem gross and microscopic examination of tissues and organs", "setting": "DBA white mice; 5 μg/ml (375 mg/kg), 6 mice", "result": "no local or systemic toxicological abnormalities"}, {"measurement": "survival of mice", "setting": "DBA white mice; 5 μg/ml (375 mg/kg), 6 mice", "result": "all still living"}]}
{"compound": "N=C(N)NCCC[C@H](NC(=O)[C@@H]1CCCN1C(=O)[C@@H](N)CC(=O)O)C(=O)O", "note": "[Asp-Pro-Arg] (H-Asp-Pro-Arg-OH)", "values": [{"measurement": "inhibition, individual high", "setting": "[1]", "result": 38, "unit": "%"}, {"measurement": "inhibition, individual low", "setting": "[1]", "result": 0, "unit": "%"}, {"measurement": "average % inhibition (P-K wheal)", "setting": "[1]", "result": 15, "unit": "%"}]}
{"compound": "N=C(N)NCCC[C@H](NC(=O)[C@@H]1CCCN1C(=O)[C@H](CC(=O)O)NC(=O)[C@H](CO)NC(=O)[C@@H](N)CC(=O)O)C(=O)O", "note": "[Asp-Ser-Asp-Pro-Arg] (H-DSDPR-OH)", "values": [{"measurement": "inhibition, individual high", "setting": "[1]", "result": 89, "unit": "%"}, {"measurement": "inhibition, individual low", "setting": "[1]", "result": 60, "unit": "%"}, {"measurement": "average % inhibition (P-K wheal)", "setting": "[1]", "result": 72, "unit": "%"}, {"measurement": "wheal smaller than at buffered saline diluent site", "setting": "[2]", "result": "approximately 45%"}, {"measurement": "post-mortem gross and microscopic examination of tissues and organs", "setting": "DBA white mice; 10 μg/ml (1 mg/kg), 8 mice", "result": "no local or systemic toxicological abnormalities"}, {"measurement": "survival of mice", "setting": "DBA white mice; 10 μg/ml (1 mg/kg), 8 mice", "result": "all still living"}, {"measurement": "post-mortem gross and microscopic examination of tissues and organs", "setting": "DBA white mice; 13 μg/ml (1.3 mg/kg), 8 mice", "result": "no local or systemic toxicological abnormalities"}, {"measurement": "survival of mice", "setting": "DBA white mice; 13 μg/ml (1.3 mg/kg), 8 mice", "result": "all still living"}]}
{"compound": "C[C@H](NC(=O)[C@H](CCC(=O)O)NC(=O)[C@@H](NC(=O)[C@@H](N)CC(=O)O)[C@@H](C)O)C(=O)N[C@@H](CCCNC(=N)N)C(=O)O", "note": "[Asp-Thr-Glu-Ala-Arg, reference compound] (H-DTEAR-OH)", "values": [{"measurement": "inhibition, individual high", "setting": "[1]", "result": 80, "unit": "%"}, {"measurement": "inhibition, individual low", "setting": "[1]", "result": 30, "unit": "%"}, {"measurement": "average % inhibition (P-K wheal)", "setting": "[1]", "result": 58, "unit": "%"}]}
{"compound": "N=C(N)NCCC[C@H](NC(=O)[C@@H]1CCCN1C(=O)[C@H](CC(=O)O)NC(=O)[C@@H](N)CO)C(=O)O", "note": "[Ser-Asp-Pro-Arg] (H-SDPR-OH)", "values": [{"measurement": "inhibition, individual high", "setting": "[1]", "result": 50, "unit": "%"}, {"measurement": "inhibition, individual low", "setting": "[1]", "result": 0, "unit": "%"}, {"measurement": "average % inhibition (P-K wheal)", "setting": "[1]", "result": 18, "unit": "%"}]}
{"compound": "tosyl-L-arginine sarcosine methylester [TASME, reference compound]", "values": [{"measurement": "inhibition, individual high", "setting": "[1]", "result": 40, "unit": "%"}, {"measurement": "inhibition, individual low", "setting": "[1]", "result": 0, "unit": "%"}, {"measurement": "average % inhibition (P-K wheal)", "setting": "[1]", "result": 24, "unit": "%"}, {"measurement": "inhibition of the wheal and flare reaction", "setting": "[2]; challenge one and five hours after intradermal injection of approx. 2 nM", "result": "No inhibition"}, {"measurement": "wheal smaller than at buffered saline diluent site", "setting": "[2]", "result": "No reduction in the size of the wheal"}]}
